These results are taken from US11702404B2, “GLP-1R modulating compounds” (priority 2019, dated 2023).

The structures appear in SMILES notation. Like-named read-outs stand apart in the source and are kept apart here. Some results are limits rather than exact numbers.

One data set deals with GLP-1R (Homo sapiens, UniProt P43220). Nature of the data set: GLP-1R activation: cAMP increase in CHO cells stably expressing GLP-1R. In kind it is cell-based.
A short description of data set [1]: Microsomal stability, human liver microsomes (predicted hepatic clearance). As to conditions: predicted from in vitro microsomal stability data.
[2] abbreviates: cAMP increase, CHO cells stably expressing GLP-1R, 10 point dose response, 30 minutes incubation, read-out: EC50.

Sequence of GLP-1R (P43220 24-463): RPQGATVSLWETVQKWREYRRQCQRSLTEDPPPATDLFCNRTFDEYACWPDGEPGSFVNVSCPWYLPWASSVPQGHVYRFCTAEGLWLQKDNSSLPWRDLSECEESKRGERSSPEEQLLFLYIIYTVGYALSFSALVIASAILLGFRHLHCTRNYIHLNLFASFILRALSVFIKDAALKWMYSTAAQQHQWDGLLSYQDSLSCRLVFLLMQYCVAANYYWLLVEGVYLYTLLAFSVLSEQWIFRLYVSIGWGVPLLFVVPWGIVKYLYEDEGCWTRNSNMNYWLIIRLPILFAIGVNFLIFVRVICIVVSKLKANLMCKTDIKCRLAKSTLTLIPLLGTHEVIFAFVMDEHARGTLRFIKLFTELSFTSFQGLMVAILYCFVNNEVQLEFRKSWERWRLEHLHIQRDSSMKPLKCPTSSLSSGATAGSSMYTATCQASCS

Consider `COCCn1c(Cc2ccc(-c3cccc(OCc4ccc(C#N)cc4F)n3)cc2F)nc2ccc(C(=O)O)c(F)c21` [Example 364, 2-(4-(6-((4-cyano-2-fluorobenzyl)oxy)pyridin-2-yl)-2-fluorobenzyl)-7-fluoro-1-(2-methoxyethyl)-1H-benzo[d]imidazole-6-carboxylic acid], for which the EC50 on GLP-1R (setting [2]) was 1.76 nM. Moreover, the “Predicted Hepatic Clearance (Pred. Cl.)” value in data set [1] is 3.83 mL/min/kg.
For `CCn1cncc1Cn1c(Cc2ccc(-c3cccc(OCc4ccc(C#N)cc4F)n3)c(F)c2)nc2ccc(C(=O)O)cc21` [Example 520, 2-(4-(6-((4-cyano-2-fluorobenzyl)oxy)pyridin-2-yl)-3-fluorobenzyl)-1-((1-ethyl-1H-imidazol-5-yl)methyl)-1H-benzo[d]imidazole-6-carboxylic acid], in that order: 0.36 nM and 6.25 mL/min/kg.
With `O=C(O)c1ccc2nc(Cc3cc(F)c(-c4ccnc(OCc5ccc(C(F)(F)F)cc5F)n4)cc3F)n(C[C@@H]3CCO3)c2c1` [Example 785], the EC50 on GLP-1R (setting [2]) was 0.05 nM. The “Predicted Hepatic Clearance (Pred. Cl.)” value in data set [1] was 1.83 mL/min/kg.
For `COCCn1c(Cc2ccc(-c3cccc(OCc4cc(C(F)(F)F)ccc4OC)n3)cc2F)nc2ccc(C(=O)O)cc21` [Example 470, 2-(2-fluoro-4-(6-((2-methoxy-5-(trifluoromethyl)benzyl)oxy)pyridin-2-yl)benzyl)-1-(2-methoxyethyl)-1H-benzo[d]imidazole-6-carboxylic acid], in that order: 1250 nM and under 1.83 mL/min/kg.
With `N#Cc1ccc(COc2cccc(-c3ccc(Cc4nc5ccc(C(=O)O)cc5n4CC4(n5ccnn5)CC4)cc3)n2)c(F)c1` [Example 461, 1-((1-(1H-1,2,3-triazol-1-yl)cyclopropyl)methyl)-2-(4-(6-((4-cyano-2-fluorobenzyl)oxy)pyridin-2-yl)benzyl)-1H-benzo[d]imidazole-6-carboxylic acid], the EC50 on GLP-1R (setting [2]) came to 2.47 nM. Moreover, the “Predicted Hepatic Clearance (Pred. Cl.)” value in data set [1] is 7.17 mL/min/kg.
For `N#Cc1ccc(COc2cccc(-c3ccc(Cc4nc5ccc(C(=O)O)cc5n4C[C@@H]4CCCO4)c(F)c3)n2)c(F)c1` [Example 194, (S)-2-(4-(6-((4-cyano-2-fluorobenzyl)oxy)pyridin-2-yl)-2-fluorobenzyl)-1-((tetrahydrofuran-2-yl)methyl)-1H-benzo[d]imidazole-carboxylic acid], in that order: 0.86 nM and 4.67 mL/min/kg.
For the compound `COCCn1c(Cc2cc(F)c(-c3cccc(OCc4cc(C)c(C(F)(F)F)cc4F)n3)cc2F)nc2ccc(C(=O)O)cc21` [Example 871], at GLP-1R (setting [2]), the EC50 came to 30.8 nM. Also, the “Predicted Hepatic Clearance (Pred. Cl.)” value in data set [1] was 2 mL/min/kg.
Take `COCCn1c(Cc2cc(F)c(-c3cccc(OCc4cccc5c4COC5)n3)cc2F)nc2ccc(C(=O)O)cc21` [Example 873]: the EC50 on GLP-1R (setting [2]) is 83.8 nM. Also, in data set [1], the “Predicted Hepatic Clearance (Pred. Cl.)” value was 12.2 mL/min/kg.
With `N#Cc1ccc(COc2cccc(-c3ccc(Cc4nc5ccc(C(=O)O)cc5n4CC4CCS4(=O)=O)c(F)c3)n2)c(F)c1` (centres unmarked) [Example 17, 2-(4-(6-((4-cyano-2-fluorobenzyl)oxy)pyridin-2-yl)-2-fluorobenzyl)-1-((1,1-dioxidothietan-2-yl)methyl)-1H-benzo[d]imidazole-6-carboxylic acid], the EC50 at GLP-1R (setting [2]) was determined as 11 nM. Besides, the “Predicted Hepatic Clearance (Pred. Cl.)” value in data set [1] was 2.67 mL/min/kg.
For `CO[C@H]1C[C@@H](Cn2c(Cc3cc(F)c(-c4cccc(OCc5ccc(C#N)cc5F)n4)cc3F)nc3ccc(C(=O)O)cc32)C1` [Example 744], in that order: 10.6 nM and 1.83 mL/min/kg.
For `COCCn1c(Cc2ccc(-c3cccc(OCc4ccc(C(F)(F)F)nc4OC)n3)cc2F)nc2ccc(C(=O)O)cc21` [Example 458, 2-[[2-fluoro-4-[6-[[2-methoxy-6-(trifluoromethyl)-3-pyridyl]methoxy]-2-pyridyl]phenyl]methyl]-3-(2-methoxyethyl)benzimidazole-5-carboxylic acid], in that order: 2.78 nM and under 1.83 mL/min/kg.
Take `N#Cc1ccc(COc2cccc(-c3cc(=O)n(Cc4nc5ccc(C(=O)O)cc5n4C[C@@H]4CCO4)cc3F)n2)c(F)c1` [Example 540, (S)-2-((6-((4-cyano-2-fluorobenzyl)oxy)-5′-fluoro-2′-oxo-[2,4′-bipyridin]-1′(2′H)-yl)methyl)-1-(oxetan-2-ylmethyl)-1H-benzo[d]imidazole-6-carboxylic acid]: the EC50 on GLP-1R (setting [2]) came out at 0.12 nM. For the same compound, in data set [1], the “Predicted Hepatic Clearance (Pred. Cl.)” value is 3.33 mL/min/kg.
`COCCn1c(Cc2ccc(-c3cccc(OCc4ccc(C#N)cc4F)n3)cc2C#N)nc2ccc(C(=O)O)cc21` [Example 22, 2-(2-cyano-4-(6-((4-cyano-2-fluorobenzyl)oxy)pyridin-2-yl)benzyl)-1-(2-methoxyethyl)-1H-benzo[d]imidazole-6-carboxylic acid]: the EC50 at GLP-1R (setting [2]) amounted to 0.78 nM. Also, the “Predicted Hepatic Clearance (Pred. Cl.)” value in data set [1] was 3 mL/min/kg.
With `N#Cc1ccc(COc2cccc(-c3cc(F)c(Cc4nc5ccc(C(=O)O)nc5n4CC4(CF)CC4)cc3F)n2)c(F)c1` [Example 440, 2-(4-(6-((4-cyano-2-fluorobenzyl)oxy)pyridin-2-yl)-2,5-difluorobenzyl)-3-((1-(fluoromethyl)cyclopropyl)methyl)-3H-imidazo[4,5-b]pyridine-5-carboxylic acid], the EC50 on GLP-1R (setting [2]) stood at 2.12 nM. Further, the “Predicted Hepatic Clearance (Pred. Cl.)” value in data set [1] is 5 mL/min/kg.
For `N#Cc1ccc(COc2cccc(-c3ccc(Cc4nc5ccc(C(=O)O)cc5n4CC4(Br)CC4)c(F)c3)n2)c(F)c1` [Example 289, 1-((1-bromocyclopropyl)methyl)-2-(4-(6-((4-cyano-2-fluorobenzyl)oxy)pyridin-2-yl)-2-fluorobenzyl)-1H-benzo[d]imidazole-6-carboxylic acid], in that order: 3.02 nM and 1.92 mL/min/kg.
Regarding `COCCn1c(Cc2ccc(-c3cccc(OCc4ccc(C#N)cc4F)n3)c(C(F)(F)F)c2)nc2ccc(C(=O)O)cc21` [Example 34, 2-(4-(6-((4-cyano-2-fluorobenzyl)oxy)pyridin-2-yl)-3-(trifluoromethyl)benzyl)-1-(2-methoxyethyl)-1H-benzo[d]imidazole-carboxylic acid], the EC50 at GLP-1R (setting [2]) was 2180 nM. Moreover, the “Predicted Hepatic Clearance (Pred. Cl.)” value in data set [1] was 9.83 mL/min/kg.
For `COCCNC(=O)C(Cn1c(Cc2ccc(-c3cccc(OCc4ccc(C#N)cc4F)n3)cc2F)nc2ccc(C(=O)O)cc21)OC` (single isomer, unassigned) [Example 328, 2-(4-(6-((4-cyano-2-fluorobenzyl)oxy)pyridin-2-yl)-2-fluorobenzyl)-1-(2-methoxy-3-((2-methoxyethyl)amino)-3-oxopropyl)-1H-benzo[d]imidazole-6-carboxylic acid], in that order: 26.5 nM and 11 mL/min/kg.
In the case of `COCCn1c(Cc2ccc(-c3cccc(OCc4cccc5c4oc4ccccc45)n3)cc2F)nc2ccc(C(=O)O)cc21` [Example 265, 2-(4-(6-(dibenzo[b,d]furan-4-ylmethoxy)pyridin-2-yl)-2-fluorobenzyl)-1-(2-methoxyethyl)-1H-benzo[d]imidazole-6-carboxylic acid], on GLP-1R (setting [2]), the concentration for a half-maximal effect (EC50) was determined as 2.08 nM. Further, the “Predicted Hepatic Clearance (Pred. Cl.)” value in data set [1] was 5.67 mL/min/kg.
With `COCCn1c(Cc2ccc(-c3cccc(OCc4ccccc4)n3)cc2F)nc2ccc(C(=O)O)cc21` [Example 501, 2-(4-(6-(benzyloxy)pyridin-2-yl)-2-fluorobenzyl)-1-(2-methoxyethyl)-1H-benzo[d]imidazole-6-carboxylic acid], the EC50 on GLP-1R (setting [2]) is 102 nM. Also, the “Predicted Hepatic Clearance (Pred. Cl.)” value in data set [1] is 11.5 mL/min/kg.
On to `N#Cc1ccc(COc2nccc(-c3ccc(Cc4nc5ccc(C(=O)O)cc5n4C[C@@H]4CCO4)c(F)c3)n2)c(F)c1` [Example 351, (S)-2-(4-(2-((4-cyano-2-fluorobenzyl)oxy)pyrimidin-4-yl)-2-fluorobenzyl)-1-(oxetan-2-ylmethyl)-1H-benzo[d]imidazole-6-carboxylic acid], for which the EC50 on GLP-1R (setting [2]) came to 0.96 nM. Moreover, the “Predicted Hepatic Clearance (Pred. Cl.)” value in data set [1] was 2 mL/min/kg.
Take `COC[C@@H](Cn1c(Cc2cc(F)c(-c3cccc(OCc4ccc(C#N)cc4F)n3)cc2F)nc2ccc(C(=O)O)cc21)OC` [Example 621]: it took 17.4 nM to reach a half-maximal effect on GLP-1R (EC50 (nM)) (EC50). In addition, in data set [1], the “Predicted Hepatic Clearance (Pred. Cl.)” value was 10.7 mL/min/kg.
In the case of `O=C(O)c1cc(F)c2nc(Cc3cc(F)c(-c4cccc(OCc5ccc(C(F)F)cc5F)n4)cc3F)n(C[C@@H]3CCO3)c2c1` [Example 643], the EC50 at GLP-1R (setting [2]) turned out to be 0.03 nM. The “Predicted Hepatic Clearance (Pred. Cl.)” value in data set [1] is 5 mL/min/kg.
Take `COCCn1c(Cc2ccc(-c3cccc(OCc4ccc(C#N)cc4OC)n3)cc2F)nc2ccc(C(=O)O)cc21` [Example 243, 2-(4-(6-((4-cyano-2-methoxybenzyl)oxy)pyridin-2-yl)-2-fluorobenzyl)-1-(2-methoxyethyl)-1H-benzo[d]imidazole-6-carboxylic acid]: the EC50 at GLP-1R (setting [2]) is 0.88 nM. Also, the “Predicted Hepatic Clearance (Pred. Cl.)” value in data set [1] is 10.2 mL/min/kg.
For `COCCn1c(Cc2cc(F)c(-c3ccnc(OCc4ccc(C#N)cc4F)n3)cc2F)nc2c(F)cc(C(=O)O)cc21` [Example 280, 2-(4-(2-((4-cyano-2-fluorobenzyl)oxy)pyrimidin-4-yl)-2,5-difluorobenzyl)-4-fluoro-1-(2-methoxyethyl)-1H-benzo[d]imidazole-6-carboxylic acid], in that order: 0.62 nM and 4 mL/min/kg.
In the case of `CO[C@H]1CN(C(C)=O)C[C@H]1n1c(Cc2cc(F)c(-c3cccc(OCc4ccc(C#N)cc4F)n3)cc2F)nc2ccc(C(=O)O)cc21` [Example 918, 3-[(3R,4S)-1-acetyl-4-methoxy-pyrrolidin-3-yl]-2-[[4-[6-[(4-cyano-2-fluoro-phenyl)methoxy]-2-pyridyl]-2,5-difluoro-phenyl]methyl]benzimidazole-5-carboxylic acid], the EC50 on GLP-1R (read-out: EC50) is 24.9 nM. In data set [1], the “Predicted Hepatic Clearance (Pred. Cl.)” value was 4.83 mL/min/kg.

The EC50 is the concentration at which the effect is half-maximal.
